From ChEMBL document CHEMBL6078626, “Recent advancements in the structural exploration of TGR5 agonists for diabetes treatment” (RSC Med Chem, 2024) come the findings set out here.

One may read the pEC50 as −log10 of the EC50, conventionally taken in molar units.

pEC50: −log10 of the molar value.

Assay [1] concerns the target T1, G-protein coupled bile acid receptor 1 (Homo sapiens, UniProt Q8TDU6).
T1 sequence (Q8TDU6 whole entry): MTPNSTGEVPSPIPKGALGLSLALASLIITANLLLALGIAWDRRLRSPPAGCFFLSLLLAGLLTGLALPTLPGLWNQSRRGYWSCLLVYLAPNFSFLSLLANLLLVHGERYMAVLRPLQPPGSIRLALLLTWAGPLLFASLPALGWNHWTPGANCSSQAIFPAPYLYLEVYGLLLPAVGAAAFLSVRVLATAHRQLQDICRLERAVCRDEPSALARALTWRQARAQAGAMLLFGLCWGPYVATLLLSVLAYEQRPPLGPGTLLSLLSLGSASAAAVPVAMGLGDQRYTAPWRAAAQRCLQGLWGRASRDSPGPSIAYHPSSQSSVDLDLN
Put plainly: Agonist activity at TGR5 (unknown origin) by TR-FRET assay. In kind it is functional.

For assay [2], the target named is T1, G-protein coupled bile acid receptor 1. Put plainly: Agonist activity at TGR5 (unknown origin) expressed in HEK293T cells assessed as cAMP level by TR-FRET analysis. In kind it is functional, cell-based. A general note: Cyclic AMP is a second messenger, typically raised through Gs and lowered through Gi signalling.
Assay [3] has the same target. Put plainly: Agonist activity at human TGR5 expressed in HEK293 cells. In kind it is functional, cell-based.
Assay [4] has the same target. Description: Agonist activity at human TGR5. In kind it is functional.

`O=C(c1cccnc1Oc1cc(Cl)ccc1Cl)N1CCN(C2CC2)c2ccccc21`: in assay [1], the pEC50 is 8.00.

As to `COc1ccc(C(C)(C)c2cn(-c3ccc(F)cc3)c(SCc3c(F)cccc3Cl)n2)cc1OC`, the pEC50 in assay [2] was 7.60.

`O=C(c1cccnc1Oc1cc(Cl)ccc1Cl)N1CCCc2ccc(F)cc21`: in assay [1], the pEC50 was 7.30.

As for `O=C(c1cccnc1Oc1cc(Cl)ccc1Cl)N1CCCc2cc(F)c(F)cc21`, the pEC50 in assay [1] was 7.30.

`Fc1cccc(F)c1-c1ccncc1CN1C(c2ccco2)=NOC1c1cc(C(F)(F)F)cc(C(F)(F)F)c1Cl` (configuration not stated) had a pEC50 in assay [3] of 7.82.

`COc1ccc(S(=O)(=O)N2CCN(S(=O)(=O)c3ccc(OC)c(OC)c3)CC2)cc1OC` gave a pEC50 in assay [4] of 5.89.

As for `O=C(c1cccnc1Oc1cc(Cl)ccc1Cl)N1CCCc2cc(F)ccc21`, in assay [1], the pEC50 was 7.70.
